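1) Cells in 96-well plates. 2) Compound, 48 h, 5 concentrations. 3) Linear interpolation between surrounding doses. 4) Unreached endpoint = highest concentration. GI50 = concentration required for 50% inhibition of growth. TGI marks complete inhibition of growth.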
Legend:
Experiment in all cases: NCI-60 cell line screen, 48 h
HOP-92 NSCLC = test system: HOP-92 NSCLC
NCI-H460 lung = test system: NCI-H460 lung
HCT-15 colon = test system: HCT-15 colon
786-0 renal = test system: 786-0 renal
T-47D breast = test system: T-47D breast
SK-MEL-28 melanoma = test system: SK-MEL-28 melanoma
DU-145 prostate = test system: DU-145 prostate
LOX IMVI melanoma = test system: LOX IMVI melanoma
K-562 leukemia = test system: K-562 leukemia
OVCAR-5 ovarian = test system: OVCAR-5 ovarian
NCI/ADR-RES ovarian = test system: NCI/ADR-RES ovarian
NCI-H226 lung = test system: NCI-H226 lung
SK-MEL-2 melanoma = test system: SK-MEL-2 melanoma
RXF 393 renal = test system: RXF 393 renal
PC-3 prostate = test system: PC-3 prostate
UO-31 renal = test system: UO-31 renal
SW-620 colon = test system: SW-620 colon
OVCAR-8 ovarian = test system: OVCAR-8 ovarian
OVCAR-4 ovarian = test system: OVCAR-4 ovarian
SK-OV-3 ovarian = test system: SK-OV-3 ovarian
TK-10 renal = test system: TK-10 renal
U251 CNS = test system: U251 CNS
CCRF-CEM leukemia = test system: CCRF-CEM leukemia
SN12C renal = test system: SN12C renal
HT29 colon = test system: HT29 colon
HL-60(TB) leukemia = test system: HL-60(TB) leukemia
HCT-116 colon = test system: HCT-116 colon
MALME-3M melanoma = test system: MALME-3M melanoma
SR leukemia = test system: SR leukemia
SF-295 CNS = test system: SF-295 CNS
SNB-19 CNS = test system: SNB-19 CNS
MCF7 breast = test system: MCF7 breast
HOP-62 NSCLC = test system: HOP-62 NSCLC
CAKI-1 renal = test system: CAKI-1 renal
UACC-257 melanoma = test system: UACC-257 melanoma
HCC-2998 colon = test system: HCC-2998 colon
SF-539 CNS = test system: SF-539 CNS
BT-549 breast = test system: BT-549 breast
MDA-MB-231 breast = test system: MDA-MB-231 breast
IGROV1 ovarian = test system: IGROV1 ovarian
UACC-62 melanoma = test system: UACC-62 melanoma
EKVX NSCLC = test system: EKVX NSCLC
NCI-H23 lung = test system: NCI-H23 lung
NCI-H522 lung = test system: NCI-H522 lung
HS 578T breast = test system: HS 578T breast
RPMI-8226 leukemia = test system: RPMI-8226 leukemia
A549 NSCLC = test system: A549 NSCLC
SF-268 CNS = test system: SF-268 CNS
ACHN renal = test system: ACHN renal
KM12 colon = test system: KM12 colon
M14 melanoma = test system: M14 melanoma
SK-MEL-5 melanoma = test system: SK-MEL-5 melanoma
COLO 205 colon = test system: COLO 205 colon
MDA-MB-435 = test system: MDA-MB-435
SNB-75 CNS = test system: SNB-75 CNS
MOLT-4 leukemia = test system: MOLT-4 leukemia

## C=C(C=O)[C@@H]1CC[C@]2(C)[C@H](CC=C3[C@H]4[C@@H](C)[C@H](C)CC[C@]4(C(=O)OC)CC[C@]32C)[C@@]1(C)CCC#N
HOP-92 NSCLC
  GI50: 1300 nM
  TGI: 2640 nM
NCI-H460 lung
  GI50: 1880 nM
  TGI: 3540 nM
HCT-15 colon
  GI50: 1470 nM
  TGI: 3070 nM
786-0 renal
  GI50: 1730 nM
  TGI: 3290 nM
T-47D breast
  GI50: 1340 nM
  TGI: 5540 nM
SK-MEL-28 melanoma
  GI50: 1810 nM
  TGI: 3330 nM
DU-145 prostate
  GI50: 1940 nM
  TGI: 3750 nM
LOX IMVI melanoma
  GI50: 1610 nM
  TGI: 3080 nM
K-562 leukemia
  GI50: 2830 nM
  TGI: > 100000 nM
OVCAR-5 ovarian
  GI50: 2160 nM
  TGI: 4890 nM
NCI/ADR-RES ovarian
  GI50: 1950 nM
  TGI: 4580 nM
NCI-H226 lung
  GI50: 1810 nM
  TGI: 3940 nM
SK-MEL-2 melanoma
  GI50: 1710 nM
  TGI: 3210 nM
RXF 393 renal
  GI50: 1990 nM
  TGI: 3550 nM
PC-3 prostate
  GI50: 1200 nM
  TGI: 3100 nM
UO-31 renal
  GI50: 1480 nM
  TGI: 2810 nM
SW-620 colon
  GI50: 1760 nM
  TGI: 3360 nM
OVCAR-8 ovarian
  GI50: 1900 nM
  TGI: 3890 nM
OVCAR-4 ovarian
  GI50: 3070 nM
  TGI: 10700 nM
SK-OV-3 ovarian
  GI50: 2390 nM
  TGI: 5260 nM
TK-10 renal
  GI50: 1610 nM
  TGI: 3320 nM
U251 CNS
  GI50: 1680 nM
  TGI: 3120 nM
CCRF-CEM leukemia
  GI50: 1420 nM
  TGI: 9470 nM
SN12C renal
  GI50: 1820 nM
  TGI: 3830 nM
HT29 colon
  GI50: 1590 nM
  TGI: 3470 nM
HL-60(TB) leukemia
  GI50: 2260 nM
  TGI: 5950 nM
HCT-116 colon
  GI50: 1490 nM
  TGI: 3050 nM
MALME-3M melanoma
  GI50: 1960 nM
  TGI: 3690 nM
SR leukemia
  GI50: 1860 nM
  TGI: > 100000 nM
SF-295 CNS
  GI50: 1340 nM
  TGI: 2670 nM
SNB-19 CNS
  GI50: 1940 nM
  TGI: 4160 nM
MCF7 breast
  GI50: 1610 nM
  TGI: 4090 nM
HOP-62 NSCLC
  GI50: 1960 nM
  TGI: 3900 nM
CAKI-1 renal
  GI50: 1560 nM
  TGI: 3160 nM
UACC-257 melanoma
  GI50: 1820 nM
  TGI: 3530 nM
HCC-2998 colon
  GI50: 1630 nM
  TGI: 3110 nM
SF-539 CNS
  GI50: 1930 nM
  TGI: 3490 nM
BT-549 breast
  GI50: 1620 nM
  TGI: 3240 nM
MDA-MB-231 breast
  GI50: 1790 nM
  TGI: 3760 nM
IGROV1 ovarian
  GI50: 1820 nM
  TGI: 3750 nM
UACC-62 melanoma
  GI50: 1590 nM
  TGI: 3590 nM
EKVX NSCLC
  GI50: 1890 nM
  TGI: 3710 nM
NCI-H23 lung
  GI50: 1810 nM
  TGI: 3590 nM
NCI-H522 lung
  GI50: 1760 nM
  TGI: 3310 nM
HS 578T breast
  GI50: 2530 nM
  TGI: 5980 nM
RPMI-8226 leukemia
  GI50: 1610 nM
  TGI: 5710 nM
A549 NSCLC
  GI50: 3490 nM
  TGI: 14800 nM
SF-268 CNS
  GI50: 1990 nM
  TGI: 3570 nM
ACHN renal
  GI50: 1640 nM
  TGI: 3020 nM
KM12 colon
  GI50: 1600 nM
  TGI: 3060 nM
M14 melanoma
  GI50: 1790 nM
  TGI: 3840 nM
SK-MEL-5 melanoma
  GI50: 1740 nM
  TGI: 3140 nM
COLO 205 colon
  GI50: 1800 nM
  TGI: 3550 nM
MDA-MB-435
  GI50: 1810 nM
  TGI: 3530 nM
SNB-75 CNS
  GI50: 1550 nM
  TGI: 3010 nM
MOLT-4 leukemia
  GI50: 2660 nM
  TGI: 12600 nM
